From publication PMC7470090, “Identification of probe-quality degraders for Poly(ADP-ribose) polymerase-1 (PARP-1)” (Journal of Enzyme Inhibition and Medicinal Chemistry, 2020) come the findings set out here.

pIC50: −log10 of the molar value.

The assay deals with T1, PARP-1 (Homo sapiens, UniProt P09874).
T1 construct: gene PARP1
In words: cell-free PARP-1 inhibition assay, dose-response. It is filed as biochemical.

T1 sequence (P09874 2-1014): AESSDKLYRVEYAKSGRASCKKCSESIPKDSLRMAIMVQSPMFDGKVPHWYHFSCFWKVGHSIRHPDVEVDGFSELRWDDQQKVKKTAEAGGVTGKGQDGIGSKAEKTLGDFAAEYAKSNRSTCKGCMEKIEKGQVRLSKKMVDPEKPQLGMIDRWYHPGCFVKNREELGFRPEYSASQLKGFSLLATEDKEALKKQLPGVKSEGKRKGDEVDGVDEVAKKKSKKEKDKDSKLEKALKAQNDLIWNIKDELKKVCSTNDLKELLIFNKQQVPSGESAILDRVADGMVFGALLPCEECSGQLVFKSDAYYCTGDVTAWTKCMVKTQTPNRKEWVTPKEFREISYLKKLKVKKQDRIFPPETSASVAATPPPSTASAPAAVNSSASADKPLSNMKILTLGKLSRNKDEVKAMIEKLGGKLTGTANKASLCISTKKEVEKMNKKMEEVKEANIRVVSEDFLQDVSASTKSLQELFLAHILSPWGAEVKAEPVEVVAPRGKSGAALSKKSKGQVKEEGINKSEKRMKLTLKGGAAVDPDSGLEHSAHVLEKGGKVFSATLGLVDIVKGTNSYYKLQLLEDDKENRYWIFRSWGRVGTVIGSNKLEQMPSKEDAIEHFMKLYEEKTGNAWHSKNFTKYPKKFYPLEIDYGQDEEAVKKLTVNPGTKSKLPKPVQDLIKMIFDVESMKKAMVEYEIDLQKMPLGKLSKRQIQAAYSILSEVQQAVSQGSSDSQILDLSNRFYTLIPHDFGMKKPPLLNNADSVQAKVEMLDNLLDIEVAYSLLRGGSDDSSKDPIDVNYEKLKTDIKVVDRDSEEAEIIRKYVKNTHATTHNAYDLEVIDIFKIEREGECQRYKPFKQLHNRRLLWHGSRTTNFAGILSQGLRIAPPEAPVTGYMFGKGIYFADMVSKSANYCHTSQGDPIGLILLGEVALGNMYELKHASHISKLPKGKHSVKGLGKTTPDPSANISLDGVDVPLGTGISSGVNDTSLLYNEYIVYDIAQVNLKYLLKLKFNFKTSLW

Broadly, the pIC50 is the negative decadic logarithm of the IC50, by convention in mol/L. A high value points to a small IC50. In the case of `O=C1CCC(N2Cc3c(NC(=O)CCCCCCCNC(=O)c4cc(Cc5n[nH]c(=O)c6ccccc56)ccc4F)cccc3C2=O)C(=O)N1` (stereo not drawn) [compound 1, N-(8-((2–(2,6-dioxopiperidin-3-yl)-1-oxoisoindolin-4-yl)amino)-8-oxooctyl)-2-fluoro-5-((4-oxo-3,4-dihydrophthalazin-1-yl)methyl)benzamide], the pIC50 was 7.15.

For `O=C1CCC(N2Cc3c(NC(=O)CCCCCCCCCCNC(=O)c4cc(Cc5n[nH]c(=O)c6ccccc56)ccc4F)cccc3C2=O)C(=O)N1` (stereo not drawn) [compound 2, N-(11-((2–(2,6-dioxopiperidin-3-yl)-1-oxoisoindolin-4-yl)amino)-11-oxoundecyl)-2-fluoro-5-((4-oxo-3,4-dihydrophthalazin-1-yl)methyl)benzamide], the pIC50 was 7.26.

As to `O=C1CCC(N2Cc3c(NC(=O)CCCCCCCCCCCNC(=O)c4cc(Cc5n[nH]c(=O)c6ccccc56)ccc4F)cccc3C2=O)C(=O)N1` (stereo not drawn) [compound 3, N-(12-((2–(2,6-dioxopiperidin-3-yl)-1-oxoisoindolin-4-yl)amino)-12-oxododecyl)-2-fluoro-5-((4-oxo-3,4-dihydrophthalazin-1-yl)methyl)benzamide], the pIC50 was 7.68. This pIC50 lies 0.42 log units higher than the previous one.
